From patent publication US11059815B2, “Synthesis of small molecule histone deacetylase 6 degraders, compounds formed thereby, and pharmaceutical compositions containing them” (Wisconsin Alumni Research Foundation, priority 2018, dated 2021) come the findings set out here.

One assay relates to IKZF1/3. The experiment in a line: Western blot of IKZFs in MM1S cells. Type of assay: cell-based, human. How it is done:
FIGS. 10A and 10B are western blot analysis of MM1S cells treated with selected candidates from C4-lined series (FIG. 10A) and C5-lined series (FIG. 10B) for 6 h.
FIGS. 12A, 12B, and 12C are a series of western blots showing that degrader 12d selectively promotes HDAC6 degradation in MM1S cells.
As discussed before, pomalidomide and its analogues are known to activate CRBN's E3 ligase activity for the degradation of IKZFs. […] IKZFs regulate the expression of interferon regulatory factor 4 (IRF4) and c-Myc to affect the proliferation of multiple myeloma (MM). […] PROTACs with IKZF degradation activity have been reported in a number of cases and the IKZFs are often considered as “off-targets” during the development of these PROTACs. The results presented here indicate that the IKZF degradation activity can be impacted by the linker position and the functional group next to the phthalimide ring. In the studies, the triazole ring linked to C4 position likely contributed to the induced interaction between CRBN and IKZFs.
To evaluate the activity and selectivity of 12d, a full dose response experiment was performed with compound concentrations ranging from 0.3 nM to 10 μM in MM1S cells (FIG. 12A) for several HDACs, IKZFs, and Ac-tubulin. […] Degrader 12d reduced HDAC6 protein content at as low as 3 nM and achieved maximal effects around 30 nM. […] See Douglass et al. 2013, supra. The degradation of IKZFs started from 30 nM and was dose-dependent. It is interesting to see the more efficient degradation of HDAC6, which requires the formation of ternary complex, than that of IKZFs, which only requires the formation of binary complex. In addition to the distinct mechanism, the different turnover rates of HDAC6 and IKZFs may also contribute to the observed results. The acetylated tubulin level was also dose-dependent. At higher concentrations (3 μM and 10 μM), tubulin acetylation was not […] in response to recovered HDAC6 expression by “hook effect”. The elevated tubulin acetylation at higher concentrations was likely due to the combination of HDAC6 degradation and HDAC6 inhibition.
To probe the efficiency of 12d, MM1S was treated with 100 nM 12d and the change of HDAC6 protein level was monitored by time. The HDAC6 degradation started around 1 h and reached maximal degradation effect at 4 h. The degradation of IKZFs was only observed after 4 h. Meanwhile, HDAC1 was not affected and the acetylation of tubulin was accumulated by time. […] HDAC6 expression was monitored for 48 h. […]
When the cells reached 90% confluence, they were harvested and plated 1×10^6 cells per well in 6-well plate. […] Protein concentration was measured by using the Pierce BCA protein assay (Thermo Fisher Scientific). […]

The next assay concerns the target T1, HDAC6 (Homo sapiens, UniProt Q9UBN7).
T1 construct: an in-cell ELISA was used to analyze the HDAC6 content in MM1S cells; endogenous in cells; host or cells: MM1S (ATCC CRL-2974)
T1 sequence (Q9UBN7 1-1215): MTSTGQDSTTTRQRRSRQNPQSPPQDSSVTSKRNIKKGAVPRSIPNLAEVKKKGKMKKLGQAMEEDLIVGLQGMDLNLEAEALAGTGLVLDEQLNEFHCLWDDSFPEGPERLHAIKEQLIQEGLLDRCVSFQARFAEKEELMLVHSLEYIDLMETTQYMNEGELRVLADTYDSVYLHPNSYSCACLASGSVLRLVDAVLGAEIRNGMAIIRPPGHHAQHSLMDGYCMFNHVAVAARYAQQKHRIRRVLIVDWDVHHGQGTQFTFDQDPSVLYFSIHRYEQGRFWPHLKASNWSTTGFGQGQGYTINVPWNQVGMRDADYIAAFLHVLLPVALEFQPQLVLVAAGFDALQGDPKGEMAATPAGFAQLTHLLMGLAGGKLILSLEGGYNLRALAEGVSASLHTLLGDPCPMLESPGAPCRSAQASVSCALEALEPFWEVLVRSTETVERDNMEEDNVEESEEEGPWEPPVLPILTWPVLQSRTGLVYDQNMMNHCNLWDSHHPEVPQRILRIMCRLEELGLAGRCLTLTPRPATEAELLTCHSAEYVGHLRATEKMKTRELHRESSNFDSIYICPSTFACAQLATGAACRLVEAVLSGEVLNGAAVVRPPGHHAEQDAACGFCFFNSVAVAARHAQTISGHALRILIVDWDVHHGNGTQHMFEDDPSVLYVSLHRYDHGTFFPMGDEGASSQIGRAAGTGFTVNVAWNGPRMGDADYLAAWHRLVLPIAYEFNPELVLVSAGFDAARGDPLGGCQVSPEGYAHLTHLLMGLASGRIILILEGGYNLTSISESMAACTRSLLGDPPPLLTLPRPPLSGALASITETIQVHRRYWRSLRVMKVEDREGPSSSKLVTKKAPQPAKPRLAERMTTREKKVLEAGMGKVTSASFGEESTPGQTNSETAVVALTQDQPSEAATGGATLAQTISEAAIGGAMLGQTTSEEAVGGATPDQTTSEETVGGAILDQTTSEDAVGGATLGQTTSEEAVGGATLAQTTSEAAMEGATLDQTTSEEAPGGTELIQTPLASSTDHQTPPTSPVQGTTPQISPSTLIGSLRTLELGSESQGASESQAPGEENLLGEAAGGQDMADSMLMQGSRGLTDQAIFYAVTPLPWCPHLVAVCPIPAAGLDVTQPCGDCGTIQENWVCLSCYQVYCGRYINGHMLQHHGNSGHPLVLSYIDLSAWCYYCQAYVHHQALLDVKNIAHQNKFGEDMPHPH
The experiment in a line: In-cell ELISA of HDAC6 protein level in MM1S cells. It counts as cell-based. Conditions: 1 nM to 3 μM, 6 h. In general terms: In an ELISA, binding on a coated surface is turned into a signal by an enzyme label.

Bounds are passed on as bounds.

Consider `CCCCN(Cc1ccc(C(=O)NO)cc1)C(=O)Nc1ccc(OCCCCCn2cc(CNc3cccc4c3C(=O)N(C3CCC(=O)NC3=O)C4=O)nn2)cc1` (stereo not drawn) [Compound 12d, 4-((1-butyl-3-(4-((5-(4-(((2-(2,6-dioxopiperidin-3-yl)-1,3-dioxoisoindolin-4-yl)amino)methyl)-1H-1,2,3-triazol-1-yl)pentyl)oxy)phenyl)ureido)methyl)-N-hydroxybenzamide], for which the “IKZF3 recovery after wash-out” value in the assay with IKZF1/3 (100 nM for 6 h, washed with PBS, after 12 h) is reported as “quickly recovered”. Also, the “induced degradation of IKZF1/3” value in the assay on IKZF1/3 (100 nM, 6 h, MM1S) is listed as “retained the induced degradation”. The “time after which degradation of IKZFs was observed” value with IKZF1/3 (100 nM, MM1S) is listed as > 4 h. In addition, the “concentration from which degradation of IKZFs started” value with IKZF1/3 (12d dose response 0.3 nM to 10 μM, MM1S) was ≥ 30 nM.
Consider `CCCCN(Cc1ccc(C(=O)NO)cc1)C(=O)Nc1ccc(OCCCCCn2cc(CNc3cccc4c3C(=O)N(C3CCC(=O)NC3=O)C4=O)nn2)cc1` (stereo not drawn) [Compound 2], for which, at HDAC6 (read-out: DC50 (Part 2)), the DC50 amounted to 2.2 nM. The Dmax on HDAC6 (MM1.S, read-out: Dmax (Part 2)) turned out to be 85.6%.
